pIC50: −log10 of the molar value.
Assays:
[1] = biological target: T1, Pancreatic triacylglycerol lipase (Sus scrofa) (UniProt P00591); details: 10 uM
T1 sequence (whole entry): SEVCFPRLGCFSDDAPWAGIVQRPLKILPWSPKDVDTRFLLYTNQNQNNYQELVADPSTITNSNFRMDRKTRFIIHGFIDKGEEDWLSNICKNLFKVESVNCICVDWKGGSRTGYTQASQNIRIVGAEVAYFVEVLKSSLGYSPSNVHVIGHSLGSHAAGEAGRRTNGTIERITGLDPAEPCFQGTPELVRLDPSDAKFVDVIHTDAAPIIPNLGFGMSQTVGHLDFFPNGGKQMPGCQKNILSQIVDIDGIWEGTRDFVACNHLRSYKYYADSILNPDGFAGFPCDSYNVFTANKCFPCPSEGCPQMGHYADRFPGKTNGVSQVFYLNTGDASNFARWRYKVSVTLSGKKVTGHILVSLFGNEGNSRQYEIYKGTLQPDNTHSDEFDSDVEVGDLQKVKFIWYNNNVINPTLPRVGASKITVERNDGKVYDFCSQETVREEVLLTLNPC
Description: Inhibition of porcine pancreatic lipase assessed as hydrolysis of p-NPB to p-nitrophenol at 10 uM by microplate reader relative to control

[2] = biological target: T2, Pancreatic triacylglycerol lipase (Sus scrofa, UniProt P00591); assay: Inhibition of porcine pancreatic lipase assessed as hydrolysis of p-NPB to p-nitrophenol by microplate reader
T2 sequence (P00591 whole entry): T1 sequence (whole entry)

inhibition [1]: 72.2%
pIC50 [2]: 4.19
Compound: CC(C)=CCc1c(O)c(CC=C(C)C)c2occ(-c3ccc(O)cc3)c(=O)c2c1O

From ChEMBL document CHEMBL3259609, “Optimization of pancreatic lipase inhibition by Cudrania tricuspidata fruits using response surface methodology” (Bioorg Med Chem Lett, 2014)
